# Measured values reported in patent KR20180032031A, “이소디메틸웨델로락톤을 포함하는 화장료 조성물” (주식회사 엘지생활건강, priority 2016, dated 2018).
# What was measured:
# [1] = Anti-glycation effect (L-arginine and glucose); settings: 70 ℃, 4 h, 420 nm
# [2] = tested on: RAW264.7 cells, nitric oxide (NO) [RAW264.7 세포, 일산화질소(NO)]; assay: NO production inhibition in LPS-stimulated RAW264.7 cells (GRIESS method); type: cell-based; settings: Mus musculus, LPS 1 ㎍, 24 h, read-out: NO production inhibition rate
# [3] = Free radical scavenging (DPPH), antioxidant effect; settings: 37 ℃, 30 min, 520 nm, n = 3
# [4] = tested on: human-derived fibroblasts, type I collagen [인간 유래 섬유아세포, 제1형 콜라겐]; assay: Type I collagen synthesis promotion in human-derived fibroblasts (PICP EIA kit); type: cell-based; settings: 48 h, n = 4
# [5] = tested on: B-16 mouse melanoma cells [쥐의 멜라노마 세포(B-16 mouse melanoma cell)]; assay: Melanin total amount reduction in B-16 mouse melanoma cells (whitening effect); type: cell-based; settings: 3 days, n = 3; for melanin production amount: absorbance at 400 nm per 1×10^6 cells
# collagenase [콜라게네이즈] = assay: Collagenase activity inhibition; type: biochemical, rat/mouse; settings: pH 7.5, room temperature, n = 3; for enzyme activity: maximum slope of absorbance at 345 nm; for inhibition rate: collagenase
# elastase [엘라스타제] = target: T1, elastase [엘라스타제] (Homo sapiens, UniProt P08246); assay: Elastase activity inhibition; type: biochemical; settings: pH 7.5, room temperature, n = 3; for enzyme activity: slope of absorbance at 405 nm
# T1 construct: 엘라스타제(elastase)는 사람의 백혈구 세포로부터 유래한 것을 사용하였고; from tissue; host or cells: human leukocytes
# T1 sequence (P08246 30-267): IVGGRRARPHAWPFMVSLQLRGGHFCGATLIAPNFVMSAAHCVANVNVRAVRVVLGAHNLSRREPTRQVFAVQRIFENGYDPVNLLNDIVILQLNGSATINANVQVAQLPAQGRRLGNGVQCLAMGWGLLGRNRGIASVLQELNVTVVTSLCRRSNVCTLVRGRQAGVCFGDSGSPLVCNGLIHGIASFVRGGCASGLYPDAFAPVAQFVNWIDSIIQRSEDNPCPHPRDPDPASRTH
smiles,measurement,setting,value
"N=C(N)NN [Aminoguanidine, reference compound]",inhibition rate,[1]; 55 ppm,54.89%
"CNC(=N)NCCC[C@H](N)C(=O)O [L-NMMA, L-NG-Monomethylarginine, reference compound]",inhibition at 10 ppm,[2],41%
"O=C1O[C@H]([C@@H](O)CO)C(O)=C1O [비타민 C, L-Ascorbic acid, reference compound]",free radical scavenging rate (IC50),[3],7.5
same,type I collagen production amount,[4]; 50 ppm,246.8 ng/mL
same,activation at 50 ppm,"[4]; Homo sapiens, Fibroblast, collagen production vs negative control, 50 ppm, read-out: increase rate",64.3%
"OC[C@H]1O[C@@H](Oc2ccc(O)cc2)[C@H](O)[C@@H](O)[C@@H]1O [알부틴, reference compound]",melanin production amount,[5]; 100 ppm,0.228 abs
same,inhibition at 100 ppm,"[5]; Mus musculus, 72 h, total melanin vs negative control, 100 ppm, read-out: inhibition rate",30.9%
"O=c1oc2c(O)cc(O)cc2c2oc3cc(O)c(O)cc3c12 [화학식1의 화합물, 2,4,8,9-tetrahydroxy-[1]benzofuro[3,2-c]chromen-6-one]",type I collagen production amount,[4]; 1 ppm,180.3 ng/mL
same,type I collagen production amount,[4]; 10 ppm,260.1 ng/mL
same,activation at 1 ppm,"[4]; Homo sapiens, Fibroblast, collagen production vs negative control, 1 ppm, read-out: increase rate",20%
same,activation at 10 ppm,"[4]; Homo sapiens, Fibroblast, collagen production vs negative control, 10 ppm, read-out: increase rate",73.2%
same,melanin production amount,[5]; 1 ppm,0.251 abs
same,melanin production amount,[5]; 10 ppm,0.232 abs
same,inhibition at 1 ppm,"[5]; Mus musculus, 72 h, total melanin vs negative control, 1 ppm, read-out: inhibition rate",23.9%
same,inhibition at 10 ppm,"[5]; Mus musculus, 72 h, total melanin vs negative control, 10 ppm, read-out: inhibition rate",29.7%
same,enzyme activity,collagenase [콜라게네이즈]; 100 ppm,-2.34
same,enzyme activity,collagenase [콜라게네이즈]; 200 ppm,-2.61
same,inhibition rate,collagenase [콜라게네이즈]; 100 ppm,24.57%
same,inhibition rate,collagenase [콜라게네이즈]; 200 ppm,32.37%
same,inhibition at 1 ppm,[2]; 1 ppm,36.2%
same,inhibition at 10 ppm,[2],43.9%
same,inhibition at 100 ppm,[2]; 100 ppm,55.2%
same,enzyme activity,elastase [엘라스타제]; 10 ppm,3.7
same,enzyme activity,elastase [엘라스타제]; 20 ppm,3.2
same,inhibition at 10 ppm,"elastase [엘라스타제]; elastase, 10 ppm, read-out: inhibition rate",64.4%
same,inhibition at 20 ppm,"elastase [엘라스타제]; elastase, 20 ppm, read-out: inhibition rate",69.1%
same,inhibition rate,[1]; 25 ppm,44.32%
same,inhibition rate,[1]; 50 ppm,65.20%
